Measurements from paper PMC2782911 (Cancer, 2009).
Like-named read-outs stand apart in the source and are kept apart here.

Legend:
human SLC5A8 [1] = target: T1, human SLC5A8 (Homo sapiens, UniProt Q8N695); test: Inhibition of [14C]nicotinate uptake via human SLC5A8 expressed in HRPE cells; assay type: cell-based
T1 sequence (Q8N695 1-610): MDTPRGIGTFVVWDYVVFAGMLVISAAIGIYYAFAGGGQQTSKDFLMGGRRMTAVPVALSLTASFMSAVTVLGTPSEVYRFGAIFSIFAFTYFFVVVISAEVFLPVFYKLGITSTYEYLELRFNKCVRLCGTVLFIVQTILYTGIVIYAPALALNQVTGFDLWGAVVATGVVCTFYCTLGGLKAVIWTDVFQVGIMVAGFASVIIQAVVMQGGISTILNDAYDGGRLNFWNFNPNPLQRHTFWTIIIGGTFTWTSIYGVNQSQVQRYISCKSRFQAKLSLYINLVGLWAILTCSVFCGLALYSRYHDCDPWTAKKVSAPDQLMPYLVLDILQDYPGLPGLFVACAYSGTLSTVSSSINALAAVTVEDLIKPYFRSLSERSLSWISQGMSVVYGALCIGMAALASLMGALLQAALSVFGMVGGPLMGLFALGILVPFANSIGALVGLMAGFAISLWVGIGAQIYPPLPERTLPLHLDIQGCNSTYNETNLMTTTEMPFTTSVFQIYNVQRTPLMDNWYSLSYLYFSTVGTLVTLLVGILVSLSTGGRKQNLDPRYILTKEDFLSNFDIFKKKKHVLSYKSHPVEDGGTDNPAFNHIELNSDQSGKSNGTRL

human SLC5A8 [2] = target: T1, human SLC5A8; test: Substrate-induced currents in X. laevis oocytes expressing human SLC5A8; assay type: cell-based; settings: for inward currents in SLC5A8-expressing oocytes: 1 mM compound, in the presence of NaCl, not detectable in absence of Na+, -50 mV; for K0.5 (substrate concentration for half-maximal current): saturation kinetics of substrate-induced currents, human SLC5A8 oocytes
recombinant human HDAC1 = recombinant human HDAC1 (Homo sapiens, UniProt Q13547); test: Recombinant human HDAC1 activity assay; assay type: biochemical; settings: for inhibition of HDAC1: 1 mM, recombinant human isoform
recombinant human HDAC3 = recombinant human HDAC3 (Homo sapiens, UniProt O15379); test: Recombinant human HDAC3 activity assay; assay type: biochemical; settings: for inhibition of HDAC3: 1 mM, recombinant human isoform
recombinant human HDAC2 = recombinant human HDAC2 (Homo sapiens, UniProt Q92769); test: Recombinant human HDAC2 activity assay; assay type: biochemical; settings: 1 mM, recombinant human isoform
recombinant human HDAC6 = target: T2, recombinant human HDAC6 (Homo sapiens, UniProt Q9UBN7); test: Recombinant human HDAC6 activity assay; assay type: biochemical; settings: 1 mM, recombinant human isoform
T2 sequence (Q9UBN7 1-1215): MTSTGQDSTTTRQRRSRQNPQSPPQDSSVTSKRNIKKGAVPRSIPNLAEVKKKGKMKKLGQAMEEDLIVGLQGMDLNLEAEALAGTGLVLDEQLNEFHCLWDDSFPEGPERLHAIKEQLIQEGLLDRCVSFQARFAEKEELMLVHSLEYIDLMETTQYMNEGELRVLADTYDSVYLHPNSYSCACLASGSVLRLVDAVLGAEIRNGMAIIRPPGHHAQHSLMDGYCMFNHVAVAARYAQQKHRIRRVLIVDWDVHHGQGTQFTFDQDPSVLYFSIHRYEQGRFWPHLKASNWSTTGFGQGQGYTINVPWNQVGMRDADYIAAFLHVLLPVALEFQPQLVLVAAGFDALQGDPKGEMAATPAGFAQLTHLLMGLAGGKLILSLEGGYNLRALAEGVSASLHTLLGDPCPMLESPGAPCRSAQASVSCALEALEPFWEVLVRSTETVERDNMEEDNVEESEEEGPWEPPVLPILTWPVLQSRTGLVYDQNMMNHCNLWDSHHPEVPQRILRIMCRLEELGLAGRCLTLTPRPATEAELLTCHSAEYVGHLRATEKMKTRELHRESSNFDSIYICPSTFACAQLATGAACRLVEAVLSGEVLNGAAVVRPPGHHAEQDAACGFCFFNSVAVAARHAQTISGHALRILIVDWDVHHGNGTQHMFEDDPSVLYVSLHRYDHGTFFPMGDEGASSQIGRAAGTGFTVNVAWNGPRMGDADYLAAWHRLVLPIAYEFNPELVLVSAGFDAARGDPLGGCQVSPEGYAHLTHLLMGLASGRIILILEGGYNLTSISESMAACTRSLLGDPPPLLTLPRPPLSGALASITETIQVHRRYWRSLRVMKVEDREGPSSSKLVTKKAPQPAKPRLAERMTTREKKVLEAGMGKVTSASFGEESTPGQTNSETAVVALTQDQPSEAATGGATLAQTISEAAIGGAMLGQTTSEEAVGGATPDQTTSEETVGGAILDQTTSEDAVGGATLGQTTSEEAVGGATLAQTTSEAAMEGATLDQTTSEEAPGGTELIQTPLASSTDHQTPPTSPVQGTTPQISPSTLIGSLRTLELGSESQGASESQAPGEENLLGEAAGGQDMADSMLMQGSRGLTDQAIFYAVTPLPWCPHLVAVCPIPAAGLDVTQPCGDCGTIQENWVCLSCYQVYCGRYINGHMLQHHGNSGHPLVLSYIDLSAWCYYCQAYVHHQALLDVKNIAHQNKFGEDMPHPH

recombinant human HDAC5 = recombinant human HDAC5 (Homo sapiens, UniProt Q9UQL6); test: Recombinant human HDAC5 activity assay; assay type: biochemical; settings: 1 mM, recombinant human isoform
recombinant human HDAC8 = target: T3, recombinant human HDAC8 (Homo sapiens, UniProt Q9BY41); test: Recombinant human HDAC8 activity assay; assay type: biochemical; settings: 1 mM, recombinant human isoform
T3 sequence (Q9BY41 1-377): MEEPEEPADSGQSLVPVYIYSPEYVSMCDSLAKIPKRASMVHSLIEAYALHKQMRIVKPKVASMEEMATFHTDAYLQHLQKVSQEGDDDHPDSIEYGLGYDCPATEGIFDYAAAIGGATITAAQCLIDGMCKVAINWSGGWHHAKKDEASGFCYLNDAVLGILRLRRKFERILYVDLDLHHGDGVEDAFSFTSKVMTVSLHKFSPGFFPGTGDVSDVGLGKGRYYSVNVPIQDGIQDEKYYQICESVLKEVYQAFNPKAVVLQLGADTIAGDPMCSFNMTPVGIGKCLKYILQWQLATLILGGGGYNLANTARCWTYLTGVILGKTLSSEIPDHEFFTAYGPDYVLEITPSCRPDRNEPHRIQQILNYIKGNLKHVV

recombinant human HDAC9 = recombinant human HDAC9 (Homo sapiens, UniProt Q9UKV0); test: Recombinant human HDAC9 activity assay; assay type: biochemical; settings: 1 mM, recombinant human isoform
MCF7 cells [3] = test: Colony formation assay in MCF7 cells; settings: vector-transfected MCF7 cells, increasing concentrations, two weeks
MCF7 cells [4] = test: Apoptosis of MCF7 cells by FACS analysis
HDACs in MCF7 cells = test: HDAC activity in lysates of MCF7 cells cultured with compound; settings: vector-transfected MCF7 cells cultured with 1 mM compound
rat Slc5a8 = target: T4, rat Slc5a8 (Rattus norvegicus, UniProt D3Z9E5); test: Inhibition of [14C]nicotinate uptake via rat Slc5a8 expressed in HRPE cells; assay type: cell-based; settings: read-out: inhibition of nicotinate uptake
T4 sequence (D3Z9E5 1-611): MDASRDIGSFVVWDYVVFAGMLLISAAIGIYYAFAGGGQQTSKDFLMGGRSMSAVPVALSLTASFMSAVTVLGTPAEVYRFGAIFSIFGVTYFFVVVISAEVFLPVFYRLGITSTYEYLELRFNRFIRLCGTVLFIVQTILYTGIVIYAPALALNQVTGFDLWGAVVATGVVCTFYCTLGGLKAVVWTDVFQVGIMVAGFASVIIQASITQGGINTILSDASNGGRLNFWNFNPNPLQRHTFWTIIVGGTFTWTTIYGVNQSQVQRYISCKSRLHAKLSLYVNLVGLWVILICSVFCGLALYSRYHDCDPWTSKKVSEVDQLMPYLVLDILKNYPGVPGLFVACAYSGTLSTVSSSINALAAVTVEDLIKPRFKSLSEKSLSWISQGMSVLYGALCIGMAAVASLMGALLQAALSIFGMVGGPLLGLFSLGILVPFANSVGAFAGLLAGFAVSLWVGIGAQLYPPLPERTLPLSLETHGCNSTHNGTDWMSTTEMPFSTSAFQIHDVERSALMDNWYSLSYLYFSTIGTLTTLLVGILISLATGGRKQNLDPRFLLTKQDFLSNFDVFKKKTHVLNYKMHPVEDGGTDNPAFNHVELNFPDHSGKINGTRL

mouse Slc5a8 = target: T5, mouse Slc5a8 (Mus musculus, UniProt Q8BYF6); test: Inhibition of [14C]nicotinate uptake via mouse Slc5a8 expressed in HRPE cells; assay type: cell-based; settings: read-out: inhibition of nicotinate uptake
T5 sequence (Q8BYF6 1-611): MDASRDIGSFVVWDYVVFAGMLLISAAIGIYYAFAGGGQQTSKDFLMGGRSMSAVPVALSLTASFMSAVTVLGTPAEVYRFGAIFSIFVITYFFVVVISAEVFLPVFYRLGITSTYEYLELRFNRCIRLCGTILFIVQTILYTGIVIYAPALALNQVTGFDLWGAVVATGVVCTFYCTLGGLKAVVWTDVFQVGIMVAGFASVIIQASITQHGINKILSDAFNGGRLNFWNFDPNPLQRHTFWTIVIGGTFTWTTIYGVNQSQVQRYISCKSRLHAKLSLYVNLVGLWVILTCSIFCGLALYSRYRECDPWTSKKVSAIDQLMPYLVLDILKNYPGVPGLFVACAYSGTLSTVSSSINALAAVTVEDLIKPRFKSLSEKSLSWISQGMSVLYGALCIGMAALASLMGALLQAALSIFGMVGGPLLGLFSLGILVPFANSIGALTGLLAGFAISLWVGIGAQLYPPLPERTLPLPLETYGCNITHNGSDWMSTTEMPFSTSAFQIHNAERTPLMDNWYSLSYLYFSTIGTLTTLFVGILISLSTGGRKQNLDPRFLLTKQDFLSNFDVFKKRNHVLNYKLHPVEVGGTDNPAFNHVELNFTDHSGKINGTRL

[5] = Na+-activation kinetics of 3-bromopyruvate-induced currents
[6] = MCF7 cells ectopically expressing SLC5A8, 1 mM
[7] = vector-transfected MCF7 cells, 1 mM

recombinant human HDAC3, sequence (O15379 whole entry, canonical isoform): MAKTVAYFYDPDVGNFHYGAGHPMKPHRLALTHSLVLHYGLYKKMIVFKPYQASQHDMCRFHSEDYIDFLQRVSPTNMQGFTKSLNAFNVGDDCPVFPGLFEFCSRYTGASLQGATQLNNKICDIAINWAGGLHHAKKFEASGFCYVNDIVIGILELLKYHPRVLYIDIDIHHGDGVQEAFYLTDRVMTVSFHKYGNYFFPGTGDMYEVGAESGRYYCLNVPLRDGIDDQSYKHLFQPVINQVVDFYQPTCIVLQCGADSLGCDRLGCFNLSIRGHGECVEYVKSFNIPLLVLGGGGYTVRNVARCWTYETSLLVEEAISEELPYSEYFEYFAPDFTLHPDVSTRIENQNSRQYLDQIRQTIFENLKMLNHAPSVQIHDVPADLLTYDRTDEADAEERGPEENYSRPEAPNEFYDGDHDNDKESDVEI
recombinant human HDAC3, sequence (Q9Y618 395-489 partner limits assumed): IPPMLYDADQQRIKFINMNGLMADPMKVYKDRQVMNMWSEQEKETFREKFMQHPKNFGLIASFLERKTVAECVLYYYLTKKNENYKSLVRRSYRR
recombinant human HDAC1, sequence (Q13547 whole entry, canonical isoform): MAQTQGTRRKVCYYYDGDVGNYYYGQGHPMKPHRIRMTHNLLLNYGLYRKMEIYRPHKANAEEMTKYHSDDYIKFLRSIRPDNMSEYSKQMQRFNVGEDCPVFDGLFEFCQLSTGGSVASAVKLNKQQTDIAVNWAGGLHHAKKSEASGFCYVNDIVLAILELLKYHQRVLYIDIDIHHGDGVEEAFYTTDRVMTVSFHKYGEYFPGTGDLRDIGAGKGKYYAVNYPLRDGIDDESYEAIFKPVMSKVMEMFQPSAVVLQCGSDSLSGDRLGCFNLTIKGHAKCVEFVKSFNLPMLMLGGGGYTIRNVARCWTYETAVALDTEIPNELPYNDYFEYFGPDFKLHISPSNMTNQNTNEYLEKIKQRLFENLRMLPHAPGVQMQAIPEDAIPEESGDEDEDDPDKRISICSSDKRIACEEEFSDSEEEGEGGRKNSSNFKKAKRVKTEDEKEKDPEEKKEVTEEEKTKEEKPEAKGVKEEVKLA
recombinant human HDAC9, sequence (Q9UKV0 whole entry, canonical isoform): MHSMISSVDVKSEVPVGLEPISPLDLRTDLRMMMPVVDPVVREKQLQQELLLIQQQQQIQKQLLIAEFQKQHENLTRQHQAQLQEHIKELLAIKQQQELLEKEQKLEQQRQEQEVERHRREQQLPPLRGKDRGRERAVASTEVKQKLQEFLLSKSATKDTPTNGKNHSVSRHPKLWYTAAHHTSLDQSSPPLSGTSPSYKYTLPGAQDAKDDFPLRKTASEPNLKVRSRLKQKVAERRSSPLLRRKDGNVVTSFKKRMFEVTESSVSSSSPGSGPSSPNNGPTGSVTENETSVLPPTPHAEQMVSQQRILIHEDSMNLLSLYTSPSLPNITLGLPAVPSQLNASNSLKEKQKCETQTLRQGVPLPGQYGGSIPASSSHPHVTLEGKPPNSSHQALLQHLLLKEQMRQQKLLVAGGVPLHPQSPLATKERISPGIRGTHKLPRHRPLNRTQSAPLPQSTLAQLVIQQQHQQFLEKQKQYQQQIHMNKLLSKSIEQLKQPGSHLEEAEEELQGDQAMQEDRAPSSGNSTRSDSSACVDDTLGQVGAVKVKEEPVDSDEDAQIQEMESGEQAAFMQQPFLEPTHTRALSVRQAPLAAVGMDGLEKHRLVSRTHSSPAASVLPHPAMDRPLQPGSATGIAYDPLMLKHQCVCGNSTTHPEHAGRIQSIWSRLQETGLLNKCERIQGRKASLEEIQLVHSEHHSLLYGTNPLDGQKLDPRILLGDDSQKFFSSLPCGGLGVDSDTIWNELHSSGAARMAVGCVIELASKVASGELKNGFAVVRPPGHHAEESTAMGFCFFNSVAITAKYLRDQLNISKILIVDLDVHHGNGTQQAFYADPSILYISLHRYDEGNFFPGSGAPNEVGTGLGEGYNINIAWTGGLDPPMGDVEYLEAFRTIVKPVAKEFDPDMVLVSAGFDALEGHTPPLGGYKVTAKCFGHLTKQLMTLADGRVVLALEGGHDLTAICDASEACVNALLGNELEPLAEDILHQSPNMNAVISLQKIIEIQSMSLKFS
recombinant human HDAC5, sequence (Q9UQL6 whole entry, canonical isoform): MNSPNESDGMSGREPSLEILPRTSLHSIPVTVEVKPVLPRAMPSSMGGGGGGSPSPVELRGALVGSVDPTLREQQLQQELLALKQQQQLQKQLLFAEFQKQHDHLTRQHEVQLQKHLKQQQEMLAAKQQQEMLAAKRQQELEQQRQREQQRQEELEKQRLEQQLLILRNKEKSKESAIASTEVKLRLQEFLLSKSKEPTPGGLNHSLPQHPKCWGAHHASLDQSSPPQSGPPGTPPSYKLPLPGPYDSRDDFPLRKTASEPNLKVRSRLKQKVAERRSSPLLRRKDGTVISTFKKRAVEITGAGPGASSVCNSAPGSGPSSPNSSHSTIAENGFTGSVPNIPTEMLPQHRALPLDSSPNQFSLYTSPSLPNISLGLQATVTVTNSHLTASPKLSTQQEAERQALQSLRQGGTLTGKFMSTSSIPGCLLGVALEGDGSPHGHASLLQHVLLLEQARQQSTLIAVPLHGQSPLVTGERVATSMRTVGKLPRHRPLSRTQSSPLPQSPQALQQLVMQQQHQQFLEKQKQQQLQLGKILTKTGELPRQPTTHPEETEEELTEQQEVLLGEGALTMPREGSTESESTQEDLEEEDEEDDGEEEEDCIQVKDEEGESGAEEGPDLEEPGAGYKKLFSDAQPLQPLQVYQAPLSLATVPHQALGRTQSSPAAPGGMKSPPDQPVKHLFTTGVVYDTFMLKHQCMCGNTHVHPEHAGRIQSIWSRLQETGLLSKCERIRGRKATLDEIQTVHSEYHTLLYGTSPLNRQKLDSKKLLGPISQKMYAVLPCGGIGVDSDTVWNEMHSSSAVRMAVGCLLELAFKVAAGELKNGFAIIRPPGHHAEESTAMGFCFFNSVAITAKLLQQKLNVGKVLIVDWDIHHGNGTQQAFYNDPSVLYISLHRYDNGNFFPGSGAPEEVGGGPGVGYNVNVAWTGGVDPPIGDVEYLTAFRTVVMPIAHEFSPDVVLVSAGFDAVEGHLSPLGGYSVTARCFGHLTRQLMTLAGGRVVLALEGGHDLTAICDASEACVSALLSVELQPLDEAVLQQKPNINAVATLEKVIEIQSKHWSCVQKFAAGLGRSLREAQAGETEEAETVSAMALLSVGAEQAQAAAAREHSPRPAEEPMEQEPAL
recombinant human HDAC2, sequence (Q92769 whole entry, canonical isoform): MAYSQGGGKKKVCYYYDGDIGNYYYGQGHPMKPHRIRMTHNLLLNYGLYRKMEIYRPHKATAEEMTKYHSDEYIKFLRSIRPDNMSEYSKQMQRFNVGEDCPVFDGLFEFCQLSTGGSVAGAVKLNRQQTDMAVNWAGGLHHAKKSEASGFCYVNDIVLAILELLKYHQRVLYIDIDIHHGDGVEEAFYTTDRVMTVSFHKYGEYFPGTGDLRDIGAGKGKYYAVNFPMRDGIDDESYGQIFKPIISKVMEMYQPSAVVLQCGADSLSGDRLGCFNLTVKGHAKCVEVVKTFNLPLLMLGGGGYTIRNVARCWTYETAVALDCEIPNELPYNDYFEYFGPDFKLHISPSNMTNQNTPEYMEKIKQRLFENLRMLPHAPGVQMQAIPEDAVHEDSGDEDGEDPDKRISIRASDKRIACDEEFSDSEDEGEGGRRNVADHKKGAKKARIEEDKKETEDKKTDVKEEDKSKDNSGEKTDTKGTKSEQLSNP

O=C(O)C(=O)CBr [3-bromopyruvate]
IC50 (human SLC5A8 [1]; read-out: IC50 for the inhibition of human SLC5A8 (nicotinate uptake), human SLC5A8 in HRPE cells, [14C]nicotinate 15 μM, 15 min, means ± S.E.): 32 ± 9 µM
inward currents in SLC5A8-expressing oocytes (human SLC5A8 [2]): induced inward currents
current induced relative to current induced by pyruvate (human SLC5A8 [2]; 1 mM, pyruvate-induced current taken as 100%, four oocytes): approximately 50%
Hill coefficient for the activation of transport by Na+ (human SLC5A8 [2]; [5]): 1.4 ± 0.2
K0.5 value for Na+ to activate the transport process (human SLC5A8 [2]; [5]): 32 ± 4 mM
transportable substrate or blocker of SLC5A8 (human SLC5A8 [2]; conclusion from Na+-dependent inward currents at 1 mM): transportable substrate
K0.5 (substrate concentration for half-maximal current) (human SLC5A8 [2]): 495 ± 25 µM
inhibition of HDAC1 (recombinant human HDAC1): marked inhibition
inhibition of HDAC3 (recombinant human HDAC3): marked inhibition
inhibition of HDAC2 (recombinant human HDAC2): inhibited to a lesser, but significant, extent
inhibition of HDAC6 (recombinant human HDAC6): inhibited to a lesser, but significant, extent
effect on HDAC5 (recombinant human HDAC5): no effect
effect on HDAC8 (recombinant human HDAC8): no effect
effect on HDAC9 (recombinant human HDAC9): no effect
colony formation (cell viability) (MCF7 cells [3]): affected only minimally
apoptosis (FACS) (MCF7 cells [4]; [6]): induced marked apoptosis
apoptosis (FACS), added effect after siRNA silencing (MCF7 cells [4]; MCF7 cells with HDAC1 or HDAC3 silenced by siRNA, then 3-bromopyruvate 1 mM 48 h): did not have any added effect
apoptosis (FACS) after siRNA silencing (MCF7 cells [4]; MCF7 cells with HDAC2 silenced by siRNA, 3-bromopyruvate 1 mM 48 h): did not cause apoptosis
apoptosis (FACS) (MCF7 cells [4]; [7]): not affected
change in HDAC activity (HDACs in MCF7 cells): no change in HDAC activity

CC(=O)C(=O)O [pyruvate]
inhibition at 1000 µM (rat Slc5a8): 60%
inhibition at 1000 µM (mouse Slc5a8): 75%
IC50 (human SLC5A8 [1]): 652 ± 139 µM
inhibition at 1000 µM (human SLC5A8 [1]; HRPE, read-out: inhibition of nicotinate uptake): 55%
inward currents in SLC5A8-expressing oocytes (human SLC5A8 [2]): induced inward currents
substrate-induced current (human SLC5A8 [2]; 1 mM, four oocytes, NaCl buffer): 215 ± 45 nA
K0.5 (substrate concentration for half-maximal current) (human SLC5A8 [2]): 312 ± 16 µM
IC50 (recombinant human HDAC1): 30 ± 14 µM
inhibition of HDAC1 (recombinant human HDAC1): inhibited HDAC1 and HDAC3 preferentially
IC50 (recombinant human HDAC3): 40 ± 11 µM
inhibition of HDAC3 (recombinant human HDAC3): inhibited HDAC1 and HDAC3 preferentially
colony formation (cell viability) (MCF7 cells [3]): affected only minimally
apoptosis (FACS) (MCF7 cells [4]; [6]): induced marked apoptosis
apoptosis (FACS) (MCF7 cells [4]; [7]): not affected
change in HDAC activity (HDACs in MCF7 cells): no change in HDAC activity
